From patent publication US20240335397A1, “USE OF POLYAMINES IN THE TREATMENT OF BRAIN TUMOURS” (priority 2021, published 2024)
Read-outs that look alike come from different tables or passages of the source.

Legend:
U87 cell line spheroid = settings: for Invasion from spheroid: 2 wt % HA gel pre-mixed with polyamine; for Binding to HA (rank among polyamines): inferred from spheroid invasion in 2 wt % HA gel
Method: FIG. 3. Neutralisation of polyamine toxicity by matrix polyanions assayed in vitro. U87 cells were suspended at 5K cells per spheroid and then grown in medium in non-adherent plates for 7-10 days until seeded into 2% HA gel pre-mixed with a polyamine for 24 hours. (A) Representative microscopic images (multiplication 5×, field view: 1800 μm×2500 μm) were taken on day 2 after spheroid was seeded into the gel. (B) Area of invasion was determined by measurement of invasion distance from the centre of four independent spheroids in four directions on days 1, 2 and 3.
Strength of polyamine binding to polyanions (hyaluronic acid, GAGs) in (normal) brain ECM is a decisive factor which targets polyamine toxicity towards cancer cells rather than brain cells. When binding is strong, a polyamine will be neutralised before reaching cellular membrane which is surrounded by extracellular polyanions. When binding is weak, sufficient concentration of polyamine may kill the cell even though the cell is surrounded by polyanions. To test the binding strength of different polyamines, we developed a 3D neutralisation assay: the invasion from a neuroepithelial cancer spheroid (U87 cell line) was monitored in vitro in 2 wt % HA gel pre-mixed with different polyamines. Invasion from spheroid was indicative of cell survival and thus predictive of a strong binding of the polyamine to brain polyanions in vivo. A weak in vitro binding of a polyamine to HA manifested itself by the absence of invasion, i.e. cell poisoning, and thus was predictive of weak binding of the polyamine to brain polyanions in vivo.
In detail, polyamines were mixed with 2 wt % hyaluronic acid mixed with full MEM medium containing 10% foetal bovine serum to support cell growth to achieve the desired polyamine concentration and the resulting hyaluronic acid/polyamine gel plated in 24-well plates. One 3D tumour spheroid of U87 GBM cells was placed in each well. The invasion into the surrounding hyaluronic acid-rich matrix was imaged over several days and the invasion area measured by determining the maximum invasion distance in four orthogonal directions from the centre of the tumour spheroid and compared to controls with no polyamine in the hyaluronic acid matrix.

NCr nu/nu mouse brain = tested on: NCr nu/nu mouse brain
Method: FIG. 5. Weight gain and survival of NCr nu/nu mice after a single polyamine injection into the brain. 6 animals per group were randomised on day 0, and on day 1 injected with 10 μL of 4 and 10 mM of the following three polyamines: putrescine, spermidine and cadaverine. Animal weight, survival and behaviour was monitored for 14 days.
To test polyamine safety in vivo and assess their effect on brain function, a single injection of 10 μL into NCr nu/nu mouse brain was selected as a model. A 10 μL volume in a mouse brain correlates well with a 3 cm diameter tumour in human brain, which is a typical size, for example, for initial glioblastoma diagnosis. The injected volume is thus similar to what might be needed to be injected into a human brain tumour. Three polyamines were selected for testing: putrescine, spermidine and cadaverine. Polyamines were tested in two concentrations: the lowest concentration, 4 mM, was expected to be safe based on in vitro assays and the highest concentration, 10 mM, to show some toxicity for cadaverine at least.

U87 cells [1] = test: Acute toxicity of polyamines to U87 cells in liquid medium (CellToxGreen fluorescence, bright field images); format: cell-based; settings: for EC50: Homo sapiens, U-87 MG, 1 h, U87 cells, liquid medium, 60 minutes incubation, CellToxGreen normalised to lysis buffer control, read-out: EC50 (cell death)
Method: FIG. 1. Comparative acute toxicity of selected linear polyamines towards cancer cell line of neuroepithelial origin. U87 cells were plated in 24-well plates and grown for about 3 days in liquid medium up to 50% confluency. Cell death was assayed via CellToxGreen (Promega) fluorescence after 60 minutes incubation with a polyamine and normalised to control in a lysis buffer.
We tested polyamine toxicity to U87 cells, an invasive cancer cell line of neuroepithelial origin, when they were plated and incubated in full MEM medium, containing 10% foetal bovine serum.

U87 cells [2] = test: 2D-scanning cell toxicity assay: polyamine injected into well of U87 cells under 3 wt % HA gel; format: cell-based; settings: for Level of protection by HA of distant cells (rank): FIG. 4
Method: FIG. 4. […] Adherent cells were grown in 24-well plates in 3% HA gel until achieved 40-50% confluency. Non-toxic fluorescent dye—CellToxGreen (Promega)—was premixed into the gel. 30 μL of polyamine ( 1/20 of total gel volume) was injected at 6 o'clock position of the well. CellToxGreen penetrated only into the dead cells with compromised membranes, bound to their DNA and emitted green fluorescence, i.e. increase in fluorescence intensity quantified cell death. Cells were monitored for 7 days using well scanning functions of a fluorescent reader FLUOstar (BMG Labtech, Germany). (A) Drawing of a well to show the point of injection of polyamine and the fate of cells near the injection point; and a representative image of a well assembled from 44 scanned patches. The higher the fluorescence intensity of a patch, the higher was the number of dead cells. (B) Ratio of dead cell fluorescence in two opposite areas of the well. Ratio=[fluorescence intensity in 22 patches adjacent to the injection point]/[fluorescence intensity in 22 patches opposing the injection point]. […] Multiplication 5×, field view: 2500 μm×1800 μm.
When brain cancers develop, it is within the polyanion (hyaluronic acid and GAG)-enriched environment of normal brain matrix, which in the tumour vicinity is degraded, diluted by oedema while the tumour itself synthesizes new specialized matrix with very different composition to normal brain (see Example 2). […] First, a cancer cell line of the neuroepithelial origin (U87) was plated, given a day for the cells to adhere to the well bottom and then covered by HA gel as a model of the polyanion-rich, normal brain ECM. Then, a polyamine was injected at the 6 o'clock position of each well (see FIG. 4). In the vicinity of the injection point, cells were expected to die, because the initial polyamine concentration was maximal in this region and the HA gel in this region was diluted by the carrier solvent (PBS). However, cells distant from the injection point were still surrounded by undiluted HA and the HA gel was expected to sequester the polyamine as it diffused through the HA gel, providing the polyamine binds strongly to HA and there is sufficient HA (i.e. the HA is not diluted) to bind sufficient polyamine to reduce the effective polyamine concentration to below the EC50 value. Thus, cells more distant from the injection point were expected to be protected from the polyamine, for as long as the polyamine remained strongly bound to the HA gel. Cell death was imaged over the well by scanning the well bottom for the fluorescence of a mortality dye, which binds DNA of cells with impaired membrane integrity.
In detail, U87 glioblastoma cells were grown in 24-well plates at with full MEM medium containing 10% foetal bovine serum until a layer of confluent cells covered the bottom of each well (FIG. 4). This liquid media was then removed leaving a layer of cells adhered to the bottom of each well. […] This hyaluronic acid plus protein gel represents a model of human brain extracellular matrix. CEIIToxGreen is a non-toxic molecule that can only enter dead cells, where it binds to DNA and emits green fluorescence. CEIIToxGreen thus allowed us to follow cell death over time in this assay by monitoring green fluorescence.
30 μL of different concentrations of polyamine was injected at the 6 o'clock position of each well and mapped the dead cell content in each well as a function of time. Specifically, each well was mapped as 44 congruent, contiguous tiles (FIG. 4A) and cell death in a tile was assayed as the net green fluorescence intensity from the tile.

recurrent GBM = settings: in combination with Lomustine, patients with recurrent GBM; cited from earlier work

NCCCCCCNCCCCCCN [BHMTA, bis(hexamethylene)triamine]
Concentrations showing cytotoxic effects in hyaluronic acid-rich matrix (U87 cell line spheroid): > 4000 µM

NCCCCCN [cadaverine]
Concentrations showing cytotoxic effects in hyaluronic acid-rich matrix (U87 cell line spheroid; human): > 4000 µM | Animals died after 30 min of injection (NCr nu/nu mouse brain; 10 mM, 10 μL into brain): 3 out of 6 | Further animals died within 24 hours (NCr nu/nu mouse brain; 10 mM, 10 μL into brain): 2 animals | Survival (NCr nu/nu mouse brain; 10 mM, 10 μL into brain): Only one animal survived | Weight loss of surviving animal (NCr nu/nu mouse brain; 10 mM, day 3, then fully recovered): 18% | EC50 (U87 cells [1]): 6 mM | Protection of cells in HA gel distant from injection (U87 cells [2]; 10 mM): not protected | Level of protection by HA of distant cells (rank) (U87 cells [2]; 3 wt % HA gel): lowest

NCCCCN [putrescine]
Cytotoxicity in hyaluronic acid-rich matrix compared with media (U87 cell line spheroid): almost completely abrogated | Acute toxicity in vivo (NCr nu/nu mouse brain; either concentration (4 mM, 10 mM), 10 μL into brain): Neither putrescine nor spermidine demonstrated acute toxicity | Level of protection by HA of distant cells (rank) (U87 cells [2]; 3 wt % HA gel): highest | Protection of cells in HA gel distant from injection (U87 cells [2]; both 4 mM and 10 mM): protected

NCCCCNCCCN [spermidine]
Cytotoxicity in hyaluronic acid-rich matrix compared with media (U87 cell line spheroid; 2 wt % HA gel): almost completely abrogated | Invasion from spheroid (U87 cell line spheroid): invasion from spheroid was not affected | Toxicity in 2 wt % hyaluronic acid (U87 cell line spheroid; 4-12 mM): non-toxic | Binding to HA (rank among polyamines) (U87 cell line spheroid): strongest binder | EC50 (U87 cells [1]): 13 to 14 mM | Time cells on opposite side of well remained viable (U87 cells [2]; 4-12 mM, 3 wt % HA gel): at least 7 days | Time in which cells close to injection site die (U87 cells [2]; 4-12 mM, 3 wt % HA gel): 48 to 72 h | Toxicity for U87 cells close to injection site (U87 cells [2]; 4-12 mM, 3 wt % HA gel): highly toxic | Protection of cells in HA gel distant from injection (U87 cells [2]; both 4 mM and 10 mM): protected

NCCCNCCCCNCCCN [spermine]
Invasion from spheroid (U87 cell line spheroid): invasion was strongly suppressed | Concentrations showing cytotoxic effects in hyaluronic acid-rich matrix (U87 cell line spheroid; human): > 4000 µM | Binding to HA (rank among polyamines) (U87 cell line spheroid): weakest binder | Mode of cell death in bright field images (U87 cells [1]; U87 cell suspensions, 10 mM and 20 mM, within 60 minutes): severe membrane disruption resulting in cell fragmentation | Reduction of toxicity in hyaluronic acid-rich environment compared to same cell type in medium (U87 cells [2]; 10 mM, 3 wt % HA): 3 fold less toxic | Effect on cells a few millimetres away from injection point (U87 cells [2]; 4-6 mM, 3 wt % HA gel): benign | Toxicity to cells close to injection point (U87 cells [2]; 4-6 mM, 3 wt % HA gel): toxic

Bevacizumab: monoclonal antibody against vascular endothelial growth factor (VEGF)
Increase in median progression-free survival (recurrent GBM): 0.23 months | Increase in overall survival (recurrent GBM): 1.4 months
